# Values of other authors in patent US20220289705A1, “PROCESS FOR THE PREPARATION OF RIDINILAZOLE AND CRYSTALLINE FORMS THEREOF” (Summit (Oxford) Limited, priority 2019, published 2022).
# System: Clostridioides difficile
# Details: Phase 2 clinical trial; CDI recurrence
compound,measurement,value
CN[C@H](CC(C)C)C(=O)N[C@H]1C(=O)N[C@@H](CC(N)=O)C(=O)N[C@H]2C(=O)N[C@H]3C(=O)N[C@H](C(=O)N[C@H](C(=O)O)c4cc(O)cc(O)c4-c4cc3ccc4O)[C@H](O)c3ccc(c(Cl)c3)Oc3cc2cc(c3O[C@@H]2O[C@H](CO)[C@@H](O)[C@H](O)[C@H]2O[C@H]2C[C@](C)(N)[C@H](O)[C@H](C)O2)Oc2ccc(cc2Cl)[C@H]1O [vancomycin],rates of recurrent disease,34.8%
"c1cc(-c2nc3cc(-c4ccc5[nH]c(-c6ccncc6)nc5c4)ccc3[nH]2)ccn1 [ridinilazole, 2,2′-di(pyridin-4-yl)-1H,1′H-5,5′-bibenzo[d]imidazole]",rates of recurrent disease,14.3%
